# From ChEMBL document CHEMBL1201862, “PubChem BioAssay data set” (2004)
# “And” between values parts separate entries of the source, which are not always exact repeats. Identical values can stand only once. The source made the active and inactive calls.
# Assays:
# [1] = Vero cell cytotoxicity, dose response, cytotoxicity control for Vif-APOBEC3G degradation inhibitor project, Vero cells (AID 1117358); assay type: functional; details: Human immunodeficiency virus 1, Vero
# Paired box protein Pax-8 = Paired box protein Pax-8 (Homo sapiens, UniProt Q06710); assay: inhibitors of PAX8-driven TPO luciferase reporter, dose response, RMG-I cells, cherry-pick (AID 687027); assay type: functional, cell-based;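 further: luciferase reporter driven by Pax8 target thyroperoxidase promoter measured by SteadyGlo luminescence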
# [2] = cytotoxicity in COV434 cells, dose response, cytotoxicity control for PAX8 inhibitor project, cell-based, plate reader, dry powder, SA7 (AID 743145); assay type: functional
# [3] = cytotoxicity in OV-90 ovarian cancer cells, dose response, PAX8 inhibitor project, cell-based, plate reader, dry powder, SA8 (AID 743149); assay type: functional
# [4] = IOSE-T80 ovarian epithelial cell cytotoxicity, dose response, cytotoxicity control for PAX8 inhibitor project, plate reader, dry powder samples (AID 743045); assay type: functional, cell-based
# [5] = cytotoxicity dependent on PAX8, dose response, cell-based, plate reader, dry powder (AID 743049); assay type: functional
# [6] = target: T1, Tyrosine-protein phosphatase non-receptor type 7 (Homo sapiens, UniProt P35236); assay: inhibitors of human HePTP phosphatase, […], biochemical, absorbance, leukemia target (AID 521); assay type: functional
# T1 sequence (P35236 whole entry): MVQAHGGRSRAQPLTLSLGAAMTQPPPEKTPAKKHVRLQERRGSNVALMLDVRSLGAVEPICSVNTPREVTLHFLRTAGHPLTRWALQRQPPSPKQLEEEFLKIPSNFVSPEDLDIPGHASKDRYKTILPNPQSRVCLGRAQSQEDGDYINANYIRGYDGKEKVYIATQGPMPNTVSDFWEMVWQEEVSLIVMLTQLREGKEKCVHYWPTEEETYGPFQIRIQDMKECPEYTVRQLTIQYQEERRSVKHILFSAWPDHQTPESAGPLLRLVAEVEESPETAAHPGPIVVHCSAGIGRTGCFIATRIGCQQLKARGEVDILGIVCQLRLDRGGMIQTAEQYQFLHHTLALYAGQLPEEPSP
# [7] = target: Ubiquitin carboxyl-terminal hydrolase BAP1 (Homo sapiens, UniProt Q92560); assay: BAP1 deubiquitinase inhibitors, dose response, biochemical (AID 714); assay type: functional
# [8] = target: Voltage-dependent T-type calcium channel subunit alpha-1H (Homo sapiens, UniProt O95180); assay type: functional;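 further: channel activity triggered by adding a high calcium stimulation buffer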
# Saccharomyces cerevisiae = assay: NALP1 inhibitor project selectivity study, Caspase-1/ASC signal blockade IC50 in S. cerevisiae (AID 488863); assay type: functional, organism-based
# [9] = inhibitors of Vif binding to APOBEC3G peptide, primary screen, biochemical, TR-FRET, GST-Vif 1-94, biotin-A3G peptide, dose response retest (AID 1117319); assay type: functional;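 further: TR-FRET signal of purified GST-Vif binding a biotinylated A3G peptide; inhibitors lower the FRET signal by blocking Vif and A3G binding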
# [10] = target: NACHT, LRR and PYD domains-containing protein 1 (Homo sapiens, UniProt Q9C000); assay: NALP1 inhibitors in yeast, dose response, luminescent (AID 488860); assay type: functional
# [11] = target: Heat shock protein HSP 90-alpha (Homo sapiens, UniProt P07900); assay type: functional, organism-based
# [12] = target: Glutathione-S-transferase (Schistosoma japonicum, UniProt Q26513); assay: biotin-GST/anti-GST TR-FRET signal inhibitors, dose response, artefact control for Vif-APOBEC3G degradation inhibitor project, biochemical (AID 1117362); assay type: functional
# [13] = target: T2, Rac GTPase-activating protein 1 (Homo sapiens, UniProt Q9H0H5); assay: MgcRacGAP GTPase-activating activity inhibitors, confirmation, biochemical, ADP Hunter fluorescence, primary and confirmatory (AID 624330); assay type: functional
# T2 sequence (Q9H0H5 whole entry): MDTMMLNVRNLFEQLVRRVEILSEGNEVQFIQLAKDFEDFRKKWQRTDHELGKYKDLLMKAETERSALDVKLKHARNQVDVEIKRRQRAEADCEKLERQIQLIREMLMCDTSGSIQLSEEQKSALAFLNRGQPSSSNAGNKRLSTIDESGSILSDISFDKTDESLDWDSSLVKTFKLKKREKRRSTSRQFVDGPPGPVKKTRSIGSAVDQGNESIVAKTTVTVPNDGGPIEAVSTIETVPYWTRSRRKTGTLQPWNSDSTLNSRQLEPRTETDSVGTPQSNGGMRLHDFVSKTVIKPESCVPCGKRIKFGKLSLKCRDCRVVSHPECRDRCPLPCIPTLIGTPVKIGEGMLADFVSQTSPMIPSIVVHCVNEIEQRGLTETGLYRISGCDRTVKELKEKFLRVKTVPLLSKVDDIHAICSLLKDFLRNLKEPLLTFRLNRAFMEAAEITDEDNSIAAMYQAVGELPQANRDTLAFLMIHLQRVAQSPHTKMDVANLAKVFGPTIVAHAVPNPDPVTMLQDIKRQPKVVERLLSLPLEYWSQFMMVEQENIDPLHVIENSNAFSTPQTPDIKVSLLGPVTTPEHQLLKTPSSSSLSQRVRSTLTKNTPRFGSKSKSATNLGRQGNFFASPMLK
# Beta Lactamase = Beta Lactamase (Pseudomonas aeruginosa, UniProt Q932Y6); assay: beta-lactamase reporter inhibitor potency, dose response, artefact control for TLR9-MyD88 binding inhibitor project, BLA reporter cells, FRET fluorescence (AID 588341); assay type: cell-based;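 further: cell based assay in CHO-K1 cells stably expressing beta-lactamase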
# Vero = Vero cell cytotoxicity, cytotoxicity control for flavivirus capping enzyme inhibitors (AID 588742); assay type: functional; details: Chlorocebus sabaeus
# [14] = target: Glucose-6-phosphate 1-dehydrogenase (Homo sapiens, UniProt P11413); assay: human G6PD enzyme inhibitors, dose response, selectivity assay for P. falciparum G6PD inhibitor project, biochemical, fluorescence (AID 504792); assay type: functional
# Genome polyprotein = Genome polyprotein (dengue virus type 2, UniProt P29990); assay: Dengue-2 NS5 methyltransferase inhibitors, primary screen, biochemical, confirmation dose response (AID 588689); assay type: functional
# Nonstructural protein 1 = Nonstructural protein 1 (Influenza A virus, UniProt Q194T2); assay type: functional, Influenza A virus (A/California/07/2009(H1N1))
# [15] = HeLa cell cytotoxicity, dose response, cytotoxicity control for MgcRacGAP inhibitor project (AID 624300); assay type: functional
# CHO = assay: cytotoxicity in TLR9-MyD88 CHO cells, dose response, cytotoxicity control for TLR9-MyD88 binding inhibitor project, cell-based, luminescence (AID 588339); assay type: functional, hamster; details: Cricetulus griseus;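 further: CHO cells stably coexpressing TLR9 and MyD88 fusions from primary screen; compound exposure lasted 48 hours before viability readout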
# [16] = THP-1 cell cytotoxicity, dose response, cytotoxicity control for Vif-APOBEC3G degradation inhibitor project, THP-1 cells (AID 1117359); assay type: functional; details: Human immunodeficiency virus 1, THP-1
# [17] = PAX5 activity inhibitors, dose response, selectivity assay for PAX8 inhibitor project, cell-based, plate reader, dry powder samples (AID 743047); assay type: functional;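 further: HEK293 cells carrying a Pax5 driven CD19 promoter luciferase reporter; potency of inhibitors that lower reporter luminescence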
# [18] = cytotoxicity in OVCAR8 ovarian cancer cells, dose response, PAX8 project, cell-based, plate reader, dry powder samples (AID 743197); assay type: functional; details: OVCAR-8
# [19] = NIH:OVCAR-3 ovarian cancer cell cytotoxicity, dose response, PAX8 inhibitor project, plate reader, dry powder samples (AID 743044); assay type: functional, cell-based
# [20] = inhibitors of CMV-promoter luciferase reporter, dose response, counter-screen for Pax8 inhibitor project, cell-based, HEK293, luminescence, dry powder (AID 743020); assay type: functional
# [21] = CTGF mRNA reduction under YAP1 overexpression, dose response, mechanism study for YAP1 pathway inhibitor project, DLD1 cells, RT-qPCR, cherry-pick (AID 1053127); assay type: functional, cell-based; details: DLD-1
# [22] = inhibitors of PGC1a acetylation in cells, dose response, cell-based, cherry-picked samples (AID 720514); assay type: functional;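 further: potency may reflect raised or lowered acetylation signal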
# [23] = HepG2 cell cytotoxicity, dose response, cytotoxicity control, luminescence plate reader, powder samples, set 2 (AID 651860); assay type: functional, cell-based
# [24] = T. cruzi growth inhibition in host cells, dose response, cell-based, plate reader, dry powder, set 2 (AID 652275); assay type: functional
# [25] = NIH/3T3 fibroblast cytotoxicity, dose response, cytotoxicity control, cell-based, plate reader, dry powder, set 2 (AID 652280); assay type: functional; details: NIH3T3
# [26] = target: NAD-dependent protein deacylase sirtuin-5, mitochondrial (Homo sapiens, UniProt Q9NXA8); assay: SIRT5 desuccinylase inhibitors, dose response, biochemical, fluorescence imaging, cherry-pick, set 5 (AID 720591);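 further: desuccinylation of succinyl peptide AMC substrate read as fluorescence after trypsin release; potency of inhibitors that lower fluorescence and may act on trypsin instead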
# [27] = P. falciparum Dd2 growth inhibitors, dose response, SYBR Green, dry powder samples, set 9 (AID 1159568); assay type: functional, cell-based
# [28] = target: G-protein coupled receptor 183 (Homo sapiens, UniProt P32249); assay: SAR confirmation of small molecule antagonists of the EBI2 receptor via a luminescent beta-arrestin assa.; assay type: functional
# [29] = Dose-response inhibition of insulin secretion in a rat insulinoma line at 5 mM glucose (AID 1117331); assay type: functional, cell-based; details: INS-1E
# [30] = half-maximal inhibitory concentration for glucagon-like peptide-1 release, STC-1 cell line, dose-response (AID 1117345); assay type: functional, cell-based
# [31] = Glucagon-like peptide 1 release potency, NCI-H716 cell line, dose-response, half-maximal inhibitory concentration (AID 1117344); assay type: functional, cell-based
# [32] = target: RNA-editing ligase 1, mitochondrial (Trypanosoma brucei brucei, UniProt P86926); assay: TbREL1 ligase inhibitors, dose response, biochemical, fluorescence, Trypanosoma brucei (AID 1117295); assay type: functional
# Paired box protein Pax-8, sequence (Q06710 whole entry): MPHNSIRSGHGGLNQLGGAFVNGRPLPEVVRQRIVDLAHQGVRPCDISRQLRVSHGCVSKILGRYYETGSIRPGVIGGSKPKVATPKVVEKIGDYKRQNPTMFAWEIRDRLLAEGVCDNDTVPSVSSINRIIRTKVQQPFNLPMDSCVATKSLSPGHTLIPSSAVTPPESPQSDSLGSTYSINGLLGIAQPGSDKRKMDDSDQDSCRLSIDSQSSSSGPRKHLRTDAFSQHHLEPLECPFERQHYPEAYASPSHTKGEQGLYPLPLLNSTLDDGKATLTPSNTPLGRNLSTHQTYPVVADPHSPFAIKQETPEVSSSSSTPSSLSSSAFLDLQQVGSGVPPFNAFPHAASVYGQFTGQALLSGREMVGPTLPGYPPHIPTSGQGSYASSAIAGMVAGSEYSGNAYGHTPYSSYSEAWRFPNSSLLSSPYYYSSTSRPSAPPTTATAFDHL
# Voltage-dependent T-type calcium channel subunit alpha-1H, sequence (O95180 whole entry): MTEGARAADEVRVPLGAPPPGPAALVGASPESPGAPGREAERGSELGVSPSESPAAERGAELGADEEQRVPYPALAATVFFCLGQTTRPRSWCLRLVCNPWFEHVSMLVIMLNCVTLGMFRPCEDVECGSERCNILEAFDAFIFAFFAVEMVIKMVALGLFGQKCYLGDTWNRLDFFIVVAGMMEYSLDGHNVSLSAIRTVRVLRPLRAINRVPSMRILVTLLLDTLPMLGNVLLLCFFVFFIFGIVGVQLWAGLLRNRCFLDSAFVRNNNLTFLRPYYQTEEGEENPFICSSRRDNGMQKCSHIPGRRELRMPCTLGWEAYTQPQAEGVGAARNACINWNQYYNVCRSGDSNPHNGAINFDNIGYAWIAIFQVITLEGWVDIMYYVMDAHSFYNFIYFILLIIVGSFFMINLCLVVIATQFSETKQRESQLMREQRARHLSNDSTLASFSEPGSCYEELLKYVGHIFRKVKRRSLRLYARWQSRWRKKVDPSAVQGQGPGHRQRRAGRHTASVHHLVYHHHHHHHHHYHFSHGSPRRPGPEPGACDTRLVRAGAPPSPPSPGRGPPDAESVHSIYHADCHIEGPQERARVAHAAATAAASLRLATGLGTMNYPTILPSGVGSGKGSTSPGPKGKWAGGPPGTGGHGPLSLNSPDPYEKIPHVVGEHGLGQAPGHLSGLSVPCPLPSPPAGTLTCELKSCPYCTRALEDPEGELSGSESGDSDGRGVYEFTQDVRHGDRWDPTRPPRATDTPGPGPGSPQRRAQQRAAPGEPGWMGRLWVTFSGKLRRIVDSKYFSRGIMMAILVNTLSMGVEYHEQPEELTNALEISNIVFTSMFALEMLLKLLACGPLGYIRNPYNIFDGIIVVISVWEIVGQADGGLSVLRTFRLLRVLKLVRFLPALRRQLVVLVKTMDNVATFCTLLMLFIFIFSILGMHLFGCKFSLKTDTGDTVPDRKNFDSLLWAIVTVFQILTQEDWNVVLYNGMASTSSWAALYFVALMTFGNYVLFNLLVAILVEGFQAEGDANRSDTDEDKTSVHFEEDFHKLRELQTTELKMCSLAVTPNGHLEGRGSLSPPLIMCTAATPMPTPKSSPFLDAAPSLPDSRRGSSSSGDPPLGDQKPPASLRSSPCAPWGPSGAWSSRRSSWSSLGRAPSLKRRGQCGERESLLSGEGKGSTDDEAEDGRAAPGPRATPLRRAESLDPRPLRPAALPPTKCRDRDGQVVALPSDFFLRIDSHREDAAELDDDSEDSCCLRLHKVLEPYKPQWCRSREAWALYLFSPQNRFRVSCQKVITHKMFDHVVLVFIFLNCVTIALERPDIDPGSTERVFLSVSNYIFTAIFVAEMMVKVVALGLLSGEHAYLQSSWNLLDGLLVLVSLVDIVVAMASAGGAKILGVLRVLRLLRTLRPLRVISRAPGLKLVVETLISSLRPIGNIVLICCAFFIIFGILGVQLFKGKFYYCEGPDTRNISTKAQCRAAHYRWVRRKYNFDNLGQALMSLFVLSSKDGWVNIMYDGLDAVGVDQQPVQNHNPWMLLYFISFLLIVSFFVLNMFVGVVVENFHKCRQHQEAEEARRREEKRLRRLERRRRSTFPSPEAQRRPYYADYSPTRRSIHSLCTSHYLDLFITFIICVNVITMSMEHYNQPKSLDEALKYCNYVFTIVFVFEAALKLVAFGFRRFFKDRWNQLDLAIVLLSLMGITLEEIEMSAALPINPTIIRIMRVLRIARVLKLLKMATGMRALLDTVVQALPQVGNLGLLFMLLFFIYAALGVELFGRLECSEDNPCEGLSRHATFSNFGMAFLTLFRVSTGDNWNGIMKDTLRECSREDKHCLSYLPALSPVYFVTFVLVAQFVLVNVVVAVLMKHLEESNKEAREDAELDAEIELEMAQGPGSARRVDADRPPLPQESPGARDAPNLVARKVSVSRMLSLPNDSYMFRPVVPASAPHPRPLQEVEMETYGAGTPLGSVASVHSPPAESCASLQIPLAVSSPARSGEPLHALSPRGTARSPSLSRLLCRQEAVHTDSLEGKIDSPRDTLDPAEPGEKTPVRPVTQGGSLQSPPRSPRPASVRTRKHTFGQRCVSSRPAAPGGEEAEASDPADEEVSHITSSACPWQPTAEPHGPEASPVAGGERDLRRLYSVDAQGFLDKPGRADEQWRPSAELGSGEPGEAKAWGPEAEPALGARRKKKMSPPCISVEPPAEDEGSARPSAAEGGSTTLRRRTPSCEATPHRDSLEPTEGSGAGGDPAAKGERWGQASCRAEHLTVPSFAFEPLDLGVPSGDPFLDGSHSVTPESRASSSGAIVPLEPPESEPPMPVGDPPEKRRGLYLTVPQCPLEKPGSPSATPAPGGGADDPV
# NACHT, LRR and PYD domains-containing protein 1, sequence (Q9C000 1-1212 limits assumed): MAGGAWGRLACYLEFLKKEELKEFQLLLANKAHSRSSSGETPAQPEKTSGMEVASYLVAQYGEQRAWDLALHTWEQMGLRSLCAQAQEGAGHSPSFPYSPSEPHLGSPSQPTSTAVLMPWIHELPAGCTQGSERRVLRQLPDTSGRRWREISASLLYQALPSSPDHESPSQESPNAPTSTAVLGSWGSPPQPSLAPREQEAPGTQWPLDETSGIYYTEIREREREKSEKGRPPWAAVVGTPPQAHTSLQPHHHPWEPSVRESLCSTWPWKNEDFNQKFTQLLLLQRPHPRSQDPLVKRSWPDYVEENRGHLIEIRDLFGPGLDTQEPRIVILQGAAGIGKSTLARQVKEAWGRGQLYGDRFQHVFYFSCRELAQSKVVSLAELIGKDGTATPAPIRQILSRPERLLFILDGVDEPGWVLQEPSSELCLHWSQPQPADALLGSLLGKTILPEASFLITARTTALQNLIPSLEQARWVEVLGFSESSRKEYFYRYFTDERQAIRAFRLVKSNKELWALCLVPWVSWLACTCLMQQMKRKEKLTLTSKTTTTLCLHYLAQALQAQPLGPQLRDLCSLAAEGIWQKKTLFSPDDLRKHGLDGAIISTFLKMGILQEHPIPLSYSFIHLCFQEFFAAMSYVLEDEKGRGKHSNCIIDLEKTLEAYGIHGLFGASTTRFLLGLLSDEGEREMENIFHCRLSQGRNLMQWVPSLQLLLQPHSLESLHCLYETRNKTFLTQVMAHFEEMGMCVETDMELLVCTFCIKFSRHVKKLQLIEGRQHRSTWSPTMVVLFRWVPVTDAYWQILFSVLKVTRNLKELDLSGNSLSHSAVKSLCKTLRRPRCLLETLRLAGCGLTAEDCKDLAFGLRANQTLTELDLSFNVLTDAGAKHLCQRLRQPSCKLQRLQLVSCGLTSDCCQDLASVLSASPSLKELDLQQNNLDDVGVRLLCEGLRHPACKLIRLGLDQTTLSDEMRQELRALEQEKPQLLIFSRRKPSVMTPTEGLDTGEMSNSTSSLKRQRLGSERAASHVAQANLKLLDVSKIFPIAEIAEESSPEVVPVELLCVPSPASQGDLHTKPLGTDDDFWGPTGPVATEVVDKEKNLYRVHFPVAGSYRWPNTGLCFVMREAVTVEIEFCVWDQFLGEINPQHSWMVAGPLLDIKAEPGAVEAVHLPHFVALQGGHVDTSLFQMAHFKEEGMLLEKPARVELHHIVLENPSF
# NACHT, LRR and PYD domains-containing protein 1, sequence (Q9C000 1213-1473 limits assumed): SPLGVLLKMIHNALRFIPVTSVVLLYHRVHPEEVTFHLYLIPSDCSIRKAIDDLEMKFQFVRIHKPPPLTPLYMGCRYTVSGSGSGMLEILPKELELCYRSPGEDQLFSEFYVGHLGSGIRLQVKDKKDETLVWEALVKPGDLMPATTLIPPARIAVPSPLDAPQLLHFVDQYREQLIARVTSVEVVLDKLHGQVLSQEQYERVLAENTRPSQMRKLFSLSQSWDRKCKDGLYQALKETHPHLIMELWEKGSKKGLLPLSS
# NAD-dependent protein deacylase sirtuin-5, mitochondrial, sequence (Q9NXA8 whole entry): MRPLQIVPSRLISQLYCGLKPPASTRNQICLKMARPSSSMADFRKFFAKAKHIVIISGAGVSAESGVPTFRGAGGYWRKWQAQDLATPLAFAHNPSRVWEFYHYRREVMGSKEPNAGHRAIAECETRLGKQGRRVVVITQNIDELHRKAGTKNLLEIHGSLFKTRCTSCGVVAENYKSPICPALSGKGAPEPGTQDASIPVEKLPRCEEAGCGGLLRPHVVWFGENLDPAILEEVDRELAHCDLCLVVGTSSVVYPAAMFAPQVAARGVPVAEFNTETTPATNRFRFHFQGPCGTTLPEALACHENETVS
# Glutathione-S-transferase, sequence (Q26513 whole entry): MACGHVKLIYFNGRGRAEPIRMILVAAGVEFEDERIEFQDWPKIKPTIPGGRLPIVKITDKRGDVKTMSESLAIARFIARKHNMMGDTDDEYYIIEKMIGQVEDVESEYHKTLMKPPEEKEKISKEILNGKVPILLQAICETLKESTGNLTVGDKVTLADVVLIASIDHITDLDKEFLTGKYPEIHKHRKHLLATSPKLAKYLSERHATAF
# Nonstructural protein 1, sequence (Q194T2 whole entry): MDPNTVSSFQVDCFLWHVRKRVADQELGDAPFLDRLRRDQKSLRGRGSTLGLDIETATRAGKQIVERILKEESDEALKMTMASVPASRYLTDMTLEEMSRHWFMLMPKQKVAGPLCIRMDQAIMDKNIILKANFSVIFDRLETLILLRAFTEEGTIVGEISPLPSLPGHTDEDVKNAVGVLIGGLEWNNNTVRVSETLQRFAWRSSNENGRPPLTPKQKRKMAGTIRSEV
structure (smiles),measurement,setting,value
N=c1sccn1CC(=O)Nc1ccc2c(c1)CCC2,CC50,[1],> 40 µM (active)
CC1(C)CC(=O)c2sc(NC(=O)CCS(=O)(=O)c3ccccc3)nc2C1,AC50,Paired box protein Pax-8,3.16 µM (active)
same,AC50,[2],22.9 µM (active)
same,AC50,[3],86.7 µM (active)
same,AC50,[4],69.9 µM (active)
same,AC50,[5],11.9 µM (active)
Cc1nc2c(o1)CCc1ccccc1C2O (centres undefined),IC50,[6],> 100 µM (not active)
CC(=O)N1CCN(c2ccccc2NC(=O)COc2cc(C)ccc2C(C)C)CC1,IC50,[7],36.7 µM (not active)
same,EC50,[8],3.67 µM (active)
Cc1sc(-c2ccncc2)nc1OC(=O)c1ccccc1,IC50,Saccharomyces cerevisiae,56.9 µM (active)
same,IC50,[9],> 100 µM (active)
same,IC50,[10],23.1 µM (active)
CCN(CC)c1ccc(C(=C2C=CC(=[N+](CC)CC)C=C2)c2ccccc2)cc1,AC50,[11],0.754 µM (active)
same,IC50,[12],25.3 µM (active)
same,IC50,[13],9.8 µM (active)
same,IC50,Beta Lactamase,4.75 µM (active)
same,CC50,Vero,0.27 µM (active)
same,IC50,[14],> 80 µM (inactive)
same,IC50,Genome polyprotein,24.9 µM (active)
same,IC50,Nonstructural protein 1,10.4 µM (active)
same,CC50,[15],0.823 µM (active)
same,IC50,CHO,0.181 µM (active)
same,CC50,[16],0.1 µM (active)
N#C[C@@H]1[C@@H](c2ccc(-c3cccc(F)c3)cc2)[C@H](CO)N1C(=O)NC1CCCC1,AC50,Paired box protein Pax-8,22.2 µM (active)
same,AC50,[2],65.3 µM (active)
same,AC50,[17],55.5 µM (active)
same,AC50,[3],> 70 µM (inactive)
same,AC50,[5],39.6 µM (active)
C[C@@H]1CN([C@H](C)CO)C(=O)c2cc(NC(=O)Nc3ccc(F)cc3)ccc2O[C@@H](C)CCCCO[C@@H]1CN(C)Cc1ccc(C(F)(F)F)cc1,AC50,Paired box protein Pax-8,5.91 µM (active)
same,AC50,[18],39.5 µM (active)
same,AC50,[19],12.4 µM (active)
same,AC50,[20],40.6 µM (active)
O=C(Cc1ccncc1)N1CCCCN2[C@H](CO)[C@@H](c3ccc(C#Cc4ccccc4F)cc3)[C@@H]2C1,AC50,[21],24.8 µM (active)
O=C1CN(S(=O)(=O)Cc2ccccc2)C[C@@H]2[C@@H](c3ccc(C#Cc4cccc(F)c4)cc3)[C@@H](CO)N12,AC50,[22],21.6 µM (active)
O=C(O)C1CCCCC1C(=O)Nc1ccccc1CN1C(=O)c2ccccc2C1=O (centres undefined),AC50,[23],> 52 µM (inactive)
CC(C)N1C[C@@H](C)[C@H](CN(C)Cc2ccc(Oc3ccccc3)cc2)Oc2c(C(=O)Nc3ccncc3)cccc2C1=O,AC50,[24],40.5 nM (active) and 71.6 nM (active)
same,AC50,[25],6.05 µM (active)
C[C@@H]1CN([C@@H](C)CO)C(=O)c2cc(Br)cnc2O[C@H]1CN(C)Cc1cccnc1,AC50,[26],> 30 µM (inactive)
CC(C)CC#Cc1ccc([C@@H]2[C@H]3CN(C(=O)Nc4ccccc4)CCCCN3[C@H]2CO)cc1,AC50,[27],2.67 µM (active)
O=C(/C=C/c1ccc(Br)cc1)N1CCN(Cc2ccc(Cl)c(Cl)c2)CC1,IC50,[28],0.00172 µM (active)
O=C(O)C1CCC1,IC50,[29],> 33.3 µM (inactive)
same,IC50,[30],> 40 µM (inactive)
same,IC50,[31],> 40 µM (inactive)
COC(=O)C1=C(C)N(Cc2cccc(C(F)(F)F)c2)C(NCc2ccc(C(F)(F)F)cc2)=NC1c1ccccc1C(F)(F)F (centres undefined),IC50,[32],> 96.6 µM (inactive)
